In patent US9364480B2, “Pharmaceutical composition for preventing or treating cancer, containing enoblock as active ingredient” (GWANGJU INSTITUTE OF SCIENCE AND TECHNOLOGY, priority 2012, dated 2016):
“Also recorded” adds a separate entry of the source.

Columns and labels:
[1] = biological target: T1, Enolase purified from rabbit muscle (Oryctolagus cuniculus, UniProt P25704); assay: Enolase activity assay; type: biochemical
T1 construct: Enolase purified from rabbit muscle was purchased from Sigma-Aldrich; purchased Sigma-Aldrich; host or cells: rabbit muscle
T1 sequence (P25704 whole entry): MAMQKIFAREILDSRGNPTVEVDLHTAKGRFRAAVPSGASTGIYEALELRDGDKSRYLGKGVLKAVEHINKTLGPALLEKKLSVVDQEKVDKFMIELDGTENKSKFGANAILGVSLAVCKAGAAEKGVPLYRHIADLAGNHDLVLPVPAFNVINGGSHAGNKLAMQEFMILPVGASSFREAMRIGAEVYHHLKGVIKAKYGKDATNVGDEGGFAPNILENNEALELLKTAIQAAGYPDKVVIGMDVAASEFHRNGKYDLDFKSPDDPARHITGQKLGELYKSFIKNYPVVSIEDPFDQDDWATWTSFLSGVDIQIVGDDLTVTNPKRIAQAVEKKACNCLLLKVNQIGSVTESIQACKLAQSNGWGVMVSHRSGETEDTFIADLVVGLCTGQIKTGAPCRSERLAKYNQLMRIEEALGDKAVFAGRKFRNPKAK
Procedure: (§1) FIG. 4. […] (a) Affinity chromatography study for ENOblock in HCT116 cancer cells. […] (b) Sequence identification for the enolase monomer subunit. […] Mascot scores above 100 were deemed to be significant. […] Twenty micrograms of cell lysate from YD-10B oral cancer cells or Huh7 hepatocytes were used as positive controls. […] As a positive control, ENOblock affinity matrix was incubated with 200 μg of HCT 116 cell lysate; 50 μg cell lysate from HCT116 cancer cells was used as a positive control for the enolase antibody.
Enolase purified from rabbit muscle was purchased from Sigma-Aldrich. A single unit of enolase is defined as the amount of enzyme that produces 1 μmol of phosphoenol pyruvate from phospho-D-glycerate/min in standard assay.^52 Enolase activity assay was measured at 37° C. by incubating pure enolase (3-9 U) in a buffer containing 50 mM imidazole-HCl (pH 6.8)(JUNSEI), 2.0 mM MgSO4 (JUNSEI) and 400 mM KCl (JUNSEI) in the absence or presence of ENOblock or NaF (Sigma). The reaction was initiated by adding 1 μmol of 2-phospho-D-glycerate, and the OD was measured after 10 min of reaction time with a spectrophometer at 240 nm.

[2] = system: HCT116 cancer cells; assay: Cancer cell migration (transwell inserts, crystal violet); type: cell-based; settings: HCT116, normoxia
Procedure: FIG. 7. […] (b) Microscopic images of crystal violet stained HCT116 cells invaded onto the transwell inserts (scale bar=100 μm). […] (d) Microscopic images of crystal violet stained HCT116 cells migrated onto the transwell inserts (scale bar=100 μm). […] Cells were treated with 10 nM taxol and 10 nM vincristine, with or without 10 μM ENOblock. Error=SD; *=P<0.05 between the groups indicated on the graph. […] For the AKT Western blot, cells were treated with ENOblock for 24 h; for the Bcl-Xl Western blot, cells were treated with ENOblock for 48 h.

[3] = biological target: T2, enolase in HCT116 cancer cell lysate (Homo sapiens, UniProt P06733); assay: Affinity chromatography / Western blot of affinity matrix eluate, cell lysate; type: binding
T2 construct: endogenous in cells; host or cells: HCT116 colon carcinoma cells (lysate)
T2 sequence (P06733 2-434): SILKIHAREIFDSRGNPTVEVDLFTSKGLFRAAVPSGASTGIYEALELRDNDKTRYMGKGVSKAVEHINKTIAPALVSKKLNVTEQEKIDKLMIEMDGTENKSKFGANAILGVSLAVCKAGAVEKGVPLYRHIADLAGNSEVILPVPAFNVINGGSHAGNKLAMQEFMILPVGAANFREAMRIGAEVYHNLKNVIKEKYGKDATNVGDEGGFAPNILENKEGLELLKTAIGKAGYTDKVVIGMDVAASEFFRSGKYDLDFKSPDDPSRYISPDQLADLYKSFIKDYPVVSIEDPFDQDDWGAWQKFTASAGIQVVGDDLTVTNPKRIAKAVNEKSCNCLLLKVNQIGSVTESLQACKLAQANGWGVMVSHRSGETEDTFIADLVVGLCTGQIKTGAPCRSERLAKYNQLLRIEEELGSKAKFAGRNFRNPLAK
Procedure: as §1
Affinity chromatography was used to identify the cellular target for AP-III-a4. Target identification strategies for the triazine library used in this study are relatively straightforward, because the molecules contain a built-in linker moiety. This allows conjugation to an affinity matrix with reduced risk of compromising biological activity.

`NCCOCCOCCNC(=O)Cc1ccc(Nc2nc(NCc3ccc(F)cc3)nc(NCC3CCCCC3)n2)cc1` [ENOblock] was tested, and the “inhibition of purified enolase activity” value ([1]; OD 240 nm, 37° C., 10 min) was “dose-dependently inhibited the activity of purified enolase; also recorded: enolase activity can be inhibited by ENOblock dose-dependently”, the “enolase inhibitory concentration compared with sodium fluoride (NaF)” value ([1]; purified enolase) was “markedly lower concentration than the wellknown enolase inhibitor” and the “treatment concentration reducing enolase activity to the level approximated with 1 mM NaF” value ([1]; purified enolase) was 2.5 µM. For the same molecule, the cancer cell migration [2] was “inhibited cell migration dose-dependently”, the “inhibition of cell migration compared with LY294002” value [2] was “more effective than LY294002 at inhibiting cell migration” and the “competition by free compound for enolase binding to ENOblock affinity matrix” value [3] was “completely inhibited enolase binding to the ENOblock affinity matrix”. The “binding of lysate proteins/enolase to compound affinity matrix” value ([3]; silver stain, mass spectrometry) was “enolase in HCT116 cancer cell lysate binds to the ENOblock affinity matrix”.
